Data: US20250129103A1, “METHODS FOR TREATMENT OF CANCER” (Frontier Medicines Corporation, priority 2022, published 2025)
Converted amounts (≈) assume the structure as drawn.

Legend:
[1] = molecular target: KRAS G12C (GMPPNP-loaded) and cRAF (Ras-binding domain) interaction (Homo sapiens (Human), UniProt P01116, C118S/C51S/C80L/G12C); test: Inhibition of KRAS G12C and cRAF binding (AlphaScreen); conditions: KRAS G12C loaded with GMPPNP, cRaf RBD, 2 hours preincubation; read-out: Raf-1 RBD K-Ras IC50
Outline: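 AlphaScreen readout (680 nm excitation, 570 nm emission) of RBD binding after a 60-90 min bead step at room temperature. This step follows 2 h compound exposure of GMPPNP-preloaded KRAS G12C in Hepes pH 7.4 buffer with MgCl2 and 10 μM GMPPNP.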

[2] = Determination of logD (1-octanol / phosphate buffer pH 7.4); format: physicochemical; conditions: 1-octanol/phosphate buffer, pH 7.4, pH 7.4, 1-octanol/phosphate buffer; read-out: Log D, pH 7.4
Outline: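 Each phase analysed by LCMS after 1 h shaking at 800 rpm and centrifugation, room temperature. Phases were mutually saturated 1-octanol and 100 mM phosphate buffer at pH 7.4. LogD derived from the phase concentrations.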

[3] = Determination of kinetic solubility (pH 7.4); format: physicochemical; conditions: phosphate buffer, pH 7.4, aqueous buffer, kinetic from dmso stock, 50 mM phosphate buffer pH 7.4, read-out: Ksol, pH 7.4
Outline: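 Solubility taken from filtrate peak areas on a calibration curve (HPLC-UV, LC-MS/MS). Before filtration and centrifugation, compound was shaken for 2 h at room temperature in pH 7.4 50 mM phosphate buffer.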

KRAS G12C (GMPPNP-loaded) and cRAF (Ras-binding domain) interaction, sequence (P01116 other isoform, or with tags, fused parts or gaps G12C/C51S/C80L/C118S): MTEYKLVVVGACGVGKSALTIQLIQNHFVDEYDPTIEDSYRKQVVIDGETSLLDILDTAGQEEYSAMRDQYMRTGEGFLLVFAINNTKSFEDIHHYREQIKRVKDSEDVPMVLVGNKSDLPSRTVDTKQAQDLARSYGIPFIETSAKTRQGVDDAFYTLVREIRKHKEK

| Structure (SMILES) | IC50 [1] | logD [2] | solubility kinetic at 2 h [3] |
| --- | --- | --- | --- |
| Cc1cc(/C=C/C(=O)N2CCN(c3nc(OC[C@@]45CCCN4C[C@H](F)C5)nc4c(F)c(-c5cccc(Cl)c5C(F)(F)F)ncc34)C[C@@H]2CC#N)nc(C)n1 [Compound 297] | 10 to 100 nM | 3.89 | 29.7 µg/mL (≈ 38.6 µM) |
| N#CC[C@H]1CN(c2nc(OC[C@@]34CCCN3C[C@H](F)C4)nc3c(F)c(-c4cccc(Cl)c4C4CC4)ncc23)CCN1C(=O)/C=C/[C@H]1CCN1C1CC1 [Compound 314] | < 10 nM | 4.05 | 32.3 µg/mL (≈ 44.2 µM) |
| N#CC[C@H]1CN(c2nc(OC[C@@]34CCCN3C[C@H](O)C4)nc3c2CCN(c2cccc4cccc(Cl)c24)C3)CCN1C(=O)/C=C/CN1CCOCC1 [Compound 316] | < 10 nM | 2.66 | 124 µg/mL (≈ 170 µM) |
| N#CC[C@H]1CN(c2nc(OCC34CCCN3CCC4)nc3c2CCN(c2cccc4cccc(Cl)c24)C3)CCN1C(=O)/C=C/CN1CCN(C2COC2)CC1 [Compound 317] | < 10 nM | 2.01 | 114 µg/mL (≈ 148 µM) |
| Cc1cc(N)nc([C@H]2Cc3nc(OC[C@@]45CCCN4C[C@H](F)C5)nc(N4CCN(C(=O)/C=C/CN(C)C)[C@@H](CC#N)C4)c3C[C@@H]2C)c1C(F)(F)F [Compound 323] | 100 to 500 nM | 2.71 | 74.5 µg/mL (≈ 104 µM) |
| Cc1noc(/C=C/C(=O)N2CCN(c3nc(OCC45CCCN4CCC5)nc4c(F)c(-c5cccc6cccc(Cl)c56)ncc34)C[C@@H]2CC#N)n1 [Example 5, (S,E)-2-(4-(7-(8-chloronaphthalen-1-yl)-8-fluoro-2-((tetrahydro-1H-pyrrolizin-7a(5H)-yl)methoxy)pyrido[4,3-d]pyrimidin-4-yl)-1-(3-(3-methyl-1,2,4-oxadiazol-5-yl)acryloyl)piperazin-2-yl)acetonitrile] | 10 to 100 nM | 2.15 | 161 µg/mL (≈ 227 µM) |
| N#CC[C@H]1CN(c2nc(OCC34CCCN3CCC4)nc3c2CCN(c2cccc4cccc(Cl)c24)C3)CCN1C(=O)/C=C/c1nc(C2COC2)no1 [Example 6, (S,E)-2-(4-(7-(8-chloronaphthalen-1-yl)-2-((tetrahydro-1H-pyrrolizin-7a(5H)-yl)methoxy)-5,6,7,8-tetrahydropyrido[3,4-d]pyrimidin-4-yl)-1-(3-(3-(oxetan-3-yl)-1,2,4-oxadiazol-5-yl)acryloyl)piperazin-2-yl)acetonitrile] | 10 to 100 nM | 2.72 | 86.4 µg/mL (≈ 117 µM) |
| N#CC[C@H]1CN(c2nc(OC[C@@]34CCCN3C[C@H](F)C4)nc3c2CCN(c2cccc4cccc(Cl)c24)C3)CCN1C(=O)/C=C/c1nc(C2COC2)no1 [Example 7, 2-((S)-4-(7-(8-chloronaphthalen-1-yl)-2-(((2R,7aS)-2-fluorohexahydro-1H-pyrrolizin-7a-yl)methoxy)-5,6,7,8-tetrahydropyrido[3,4-d]pyrimidin-4-yl)-1-((E)-3-(3-(oxetan-3-yl)-1,2,4-oxadiazol-5-yl)acryloyl)piperazin-2-yl)acetonitrile] | < 10 nM | 2.69 | 0.01 µg/mL (≈ 0.0133 µM) |
| CC(C)(O)c1noc(/C=C/C(=O)N2CCN(c3nc(OCC45CCCN4CCC5)nc4c3CCN(c3cccc5cccc(Cl)c35)C4)C[C@@H]2CC#N)n1 [Example 16, (S,E)-2-(4-(7-(8-chloronaphthalen-1-yl)-2-((hexahydro-1H-pyrrolizin-7a-yl)methoxy)-5,6,7,8-tetrahydropyrido[3,4-d]pyrimidin-4-yl)-1-(3-(3-(2-hydroxypropan-2-yl)-1,2,4-oxadiazol-5-yl)acryloyl)piperazin-2-yl)acetonitrile] | 10 to 100 nM | 3.04 | 73.1 µg/mL (≈ 99 µM) |

The next lines start with the values.

| IC50 [1] | logD [2] | solubility kinetic at 2 h [3] | Structure (SMILES) |
| --- | --- | --- | --- |
| < 10 nM | 2.99 | 118 µg/mL (≈ 153 µM) | N#CC[C@H]1CN(c2nc(OC[C@@]34CCCN3C[C@H](F)C4)nc3c(F)c(-c4cccc5cccc(Cl)c45)ncc23)CCN1C(=O)/C=C/CN1CC[C@@H]2COC[C@H]21 [Compound 298] |
| < 10 nM | 2.95 | 118 µg/mL (≈ 153 µM) | N#CC[C@H]1CN(c2nc(OC[C@@]34CCCN3C[C@H](F)C4)nc3c(F)c(-c4cccc5ccc(F)c(F)c45)ncc23)CCN1C(=O)/C=C/CN1CC[C@@H]2COC[C@H]21 [Compound 299] |
| 10 to 100 nM | 4.05 | 124 µg/mL (≈ 164 µM) | C[C@@H]1CN(C/C=C/C(=O)N2CCN(c3nc(OC[C@@]45CCCN4C[C@H](F)C5)nc4c(F)c(-c5cccc(Cl)c5C5CC5)ncc34)C[C@@H]2CC#N)C[C@H](C)O1 [Compound 300] |
| < 10 nM | 4.21 | 118 µg/mL (≈ 155 µM) | C[C@H]1CN(C/C=C/C(=O)N2CCN(c3nc(OC[C@@]45CCCN4C[C@H](F)C5)nc4c(F)c(-c5cccc(Cl)c5C5CC5)ncc34)C[C@@H]2CC#N)C[C@H](C)O1 [Compound 302] |
| 10 to 100 nM | 3.5 | 128 µg/mL (≈ 163 µM) | C[C@@H]1CN(C/C=C/C(=O)N2CCN(c3nc(OC[C@@]45CCCN4C[C@H](F)C5)nc4c(F)c(-c5cccc(Cl)c5C(F)(F)F)ncc34)C[C@@H]2CC#N)C[C@H](C)O1 [Compound 306] |
| < 10 nM | 3.68 | 124 µg/mL (≈ 157 µM) | C[C@@H]1CN(C/C=C/C(=O)N2CCN(c3nc(OC[C@@]45CCCN4C[C@H](F)C5)nc4c(F)c(-c5cccc(Cl)c5C(F)(F)F)ncc34)C[C@@H]2CC#N)C[C@@H](C)O1 [Compound 307] |
| 10 to 100 nM | 3.75 | 80.5 µg/mL (≈ 102 µM) | C[C@H]1CN(C/C=C/C(=O)N2CCN(c3nc(OC[C@@]45CCCN4C[C@H](F)C5)nc4c(F)c(-c5cccc(Cl)c5C(F)(F)F)ncc34)C[C@@H]2CC#N)C[C@H](C)O1 [Compound 308] |
| 10 to 100 nM | 2.79 | 141 µg/mL (≈ 182 µM) | CO[C@H]1CCN(C/C=C/C(=O)N2CCN(c3nc(OC[C@@]45CCCN4C[C@H](F)C5)nc4c(F)c(-c5cccc(Cl)c5C(F)(F)F)ncc34)C[C@@H]2CC#N)C1 [Compound 309] |
| 10 to 100 nM | 3.13 | 123 µg/mL (≈ 161 µM) | N#CC[C@H]1CN(c2nc(OC[C@@]34CCCN3C[C@H](F)C4)nc3c(F)c(-c4cccc(Cl)c4C(F)(F)F)ncc23)CCN1C(=O)/C=C/CN1CC[C@H](F)C1 [Compound 310] |
| 100 to 500 nM | 2.54 | 128 µg/mL (≈ 175 µM) | CN1CC[C@@H]1/C=C/C(=O)N1CCN(c2nc(OC[C@@]34CCCN3C[C@H](F)C4)nc3c(F)c(-c4cccc(Cl)c4C(F)(F)F)ncc23)C[C@@H]1CC#N [Compound 311] |
| < 10 nM | 1.54 | 123 µg/mL (≈ 166 µM) | N#CC[C@H]1CN(c2nc(OC[C@@]34CCCN3C[C@H](O)C4)nc3c(F)c(-c4cccc5cccc(Cl)c45)ncc23)CCN1C(=O)/C=C/CN1CCOCC1 [Compound 319] |
| < 10 nM | 1.52 | 162 µg/mL (≈ 214 µM) | N#CC[C@H]1CN(c2nc(OC[C@@]34CCCN3C[C@H](O)C4)nc3c(F)c(-c4cccc5ccc(F)c(Cl)c45)ncc23)CCN1C(=O)/C=C/CN1CCOCC1 [Compound 321] |
| < 10 nM | 2.5 | 115 µg/mL (≈ 144 µM) | N#CC[C@H]1CN(c2nc(OC[C@@]34CCCN3C[C@H](F)C4)nc3c(F)c(-c4cccc5cccc(Cl)c45)ncc23)CCN1C(=O)/C=C/CN1CCN(C2COC2)CC1 [Compound 325] |
